According to BigSolDB 2.1:

CC1CCC(=O)C1=O (stereo unspecified)
solubility (mole fraction)
Conditions | 278.15 K | 283.15 K | 288.15 K | 293.15 K | 298.15 K | 303.15 K | 308.15 K | 313.15 K
in 1,2-dichloroethane | 0.0554 | 0.0773 | 0.0992 | 0.122 | 0.153 | 0.184 | 0.215 | 0.254
in acetone | 0.0937 | 0.105 | 0.133 | 0.152 | 0.182 | 0.221 | 0.255 | 0.298
in acetonitrile | 0.0331 | 0.0519 | 0.0657 | 0.0823 | 0.11 | 0.139 | 0.17 | 0.204
in dichloromethane | 0.103 | 0.123 | 0.145 | 0.18 | 0.217 | 0.251 | 0.292 | 0.333
in ethanol | 0.044 | 0.0503 | 0.0645 | 0.0752 | 0.0939 | 0.111 | 0.145 | 0.187
in ethyl acetate | 0.0482 | 0.0574 | 0.0698 | 0.094 | 0.131 | 0.156 | 0.203 | 0.251
in ethyl formate | 0.0504 | 0.0603 | 0.0707 | 0.0943 | 0.12 | 0.147 | 0.176 | 0.239
in isobutanol | 0.0394 | 0.0467 | 0.052 | 0.0701 | 0.0866 | 0.111 | 0.153 | 0.211
in isopropanol | 0.0198 | 0.0388 | 0.0599 | 0.0768 | 0.101 | 0.13 | 0.165 | 0.207
in methanol | 0.0488 | 0.0629 | 0.0787 | 0.0966 | 0.119 | 0.147 | 0.177 | 0.208
in n-butanol | 0.0353 | 0.0444 | 0.0552 | 0.0693 | 0.0858 | 0.105 | 0.133 | 0.18
in n-propanol | 0.0389 | 0.0474 | 0.0581 | 0.0731 | 0.0903 | 0.113 | 0.141 | 0.202
